Test results as given in PubChem BioAssay AID1259411 (Chemical Carcinogenesis Research Information System (CCRIS), 2018).
Active and inactive are the calls of the source. How the calls were made is not given here.

System: rodent carcinogenicity bioassays, tumor incidence
Assay: CCRIS carcinogenicity studies
Method in brief: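 NCI-built, expert-reviewed records of carcinogenicity and related test outcomes (mutagenicity, tumor promotion/inhibition) compiled from published and report sources, historical span 1985-2011, not updated.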

SMILES: C=Cc1ccc(C)cc1
- carcinogen call (Species: MOUSE, Strain/Sex: SWISS/FEMALE, Route: INTRAGASTRIC, Dose: 0, 10, 50, 250 MG/KG IN OLIVE OIL 1/D, 5 D/WK FOR 78 WK (STUDY DURATION: 83 WK), Dose: 0, 10, 50, 250 MG/KG IN OLIVE OIL 1/D, 5 D/WK FOR 78 WK (STUDY DURATION: 83 WK)): inactive; negative
- carcinogen call (Species: MOUSE, Strain/Sex: SWISS/MALE, Route: INTRAGASTRIC, Dose: 0, 10, 50, 250 MG/KG IN OLIVE OIL 1/D, 5 D/WK FOR 78 WK (STUDY DURATION: 83 WK), Dose: 0, 10, 50, 250 MG/KG IN OLIVE OIL 1/D, 5 D/WK FOR 78 WK (STUDY DURATION: 83 WK)): inactive; negative
- carcinogen call (Species: RAT, Strain/Sex: SPRAGUE-DAWLEY/FEMALE, Route: INTRAGASTRIC, Dose: 0, 10, 50, 250, 500 MG/KG IN OLIVE OIL 1/D, 5 D/WK FOR 104 WK (STUDY DURATION: 123 WK), Dose: 0, 10, 50, 250, 500 MG/KG IN OLIVE OIL 1/D, 5 D/WK FOR 104 WK (STUDY DURATION: 123 WK)): inactive; negative
- carcinogen call (Species: RAT, Strain/Sex: SPRAGUE-DAWLEY/MALE, Route: INTRAGASTRIC, Dose: 0, 10, 50, 250, 500 MG/KG IN OLIVE OIL 1/D, 5 D/WK FOR 104 WK (STUDY DURATION: 123 WK), Dose: 0, 10, 50, 250, 500 MG/KG IN OLIVE OIL 1/D, 5 D/WK FOR 104 WK (STUDY DURATION: 123 WK)): inactive; negative

SMILES: C1OC1C1CO1 (centres undefined)
- carcinogen call (Species: MOUSE, Route: DERMAL, Tumor Site: Type of Lesion: INTEGUMENTARY SYSTEM (SKIN)): active; positive
- carcinogen call (Species: MOUSE, Route: INTRAPERITONEAL, Tumor Site: Type of Lesion: LUNG): active; positive
- carcinogen call (Species: MOUSE, Route: SUBCUTANEOUS, Tumor Site: Type of Lesion: INJECTION SITE): active; positive
- carcinogen call (Species: MOUSE, Strain/Sex: B6C3F1/FEMALE, Route: INHALATION, Dose: 0, 2.5, 5.0 PPM 6 HR/D 5 D/WK FOR 6 WK (STUDY DURATION: 18 MONTHS), Dose: 0, 2.5, 5.0 PPM 6 HR/D 5 D/WK FOR 6 WK (STUDY DURATION: 18 MONTHS), Tumor Site: Type of Lesion: HARDERIAN GLAND: TUMOR): active; positive
- carcinogen call (Species: RAT, Route: SUBCUTANEOUS, Tumor Site: Type of Lesion: INJECTION SITE): active; positive
- carcinogen call (Species: RAT, Strain/Sex: SPRAGUE-DAWLEY/FEMALE, Route: INHALATION, Dose: 0, 2.5, 5.0 PPM 6 HR/D 5 D/WK FOR 6 WK (STUDY DURATION: 18 MONTHS), Dose: 0, 2.5, 5.0 PPM 6 HR/D 5 D/WK FOR 6 WK (STUDY DURATION: 18 MONTHS), Tumor Site: Type of Lesion: NASAL MUCOSA: TUMOR): active; positive

SMILES: CC(C)OS(C)(=O)=O
- carcinogen call (Species: MOUSE, Strain/Sex: ICR/FEMALE, Route: SUBCUTANEOUS, Dose: 0, 10 UMOL/MOUSE IN TRIOCTANOIN INTO LEFT FLANK, 1/WK FOR 139 D (STUDY DURATION: 139 D), Tumor Site: Type of Lesion: THYMUS GLAND: LYMPHOMA): active; positive

SMILES: CC(O)CN(N=O)C(=O)NCCCl (centres undefined)
- carcinogen call (Species: RAT, Strain/Sex: F344/FEMALE, Route: INTRAVESICULAR, Dose: 0, 4.6 MG 2/WK FOR 30 WK (STUDY DURATION: LIFETIME), Tumor Site: Type of Lesion: BLADDER: TUMOR): active; positive
- carcinogen call (Species: RAT, Strain/Sex: F344/FEMALE, Route: ORAL, Dose: 0, 46 MG/L IN DRINKING WATER 5 D/WK FOR 30 WK (STUDY DURATION: LIFETIME), Tumor Site: Type of Lesion: BLADDER: TUMOR, THYROID: FOLLICULAR TUMOR): active; positive
- carcinogen call (Species: RAT, Strain/Sex: F344/MALE, Route: ORAL, Dose: 0, 46 MG/L IN DRINKING WATER 5 D/WK FOR 30 WK (STUDY DURATION: LIFETIME)): inactive; negative

SMILES: Clc1cnc(Oc2ccc(Oc3ncc(Cl)cc3Cl)cc2)c(Cl)c1
- carcinogen call (Species: MOUSE, Strain/Sex: C57BL/MALE, Route: INTRAGASTRIC, Dose: 0, 3 MG/KG BW IN CORN OIL 1/2 WK FOR 24 WK (STUDY DURATION: 55 WK), Tumor Site: Type of Lesion: LIVER: HEPATOCELLULAR ADENOMA OR CARCINOMA): active; positive
- carcinogen call (Species: MOUSE, Strain/Sex: C57BL/MALE, Route: INTRAPERITONEAL, Dose: 0, 3 MG/KG BW IN CORN OIL 1/2 WK FOR 24 WK (STUDY DURATION: 55 WK), Tumor Site: Type of Lesion: LIVER: HEPATOCELLULAR ADENOMA OR CARCINOMA): active; positive
- carcinogen call (Species: MOUSE, Strain/Sex: DBA/MALE, Route: INTRAGASTRIC, Dose: 0, 3 MG/KG BW IN CORN OIL 1/2 WK FOR 24 WK (STUDY DURATION: 55 WK)): active; positive
- carcinogen call (Species: MOUSE, Strain/Sex: DBA/MALE, Route: INTRAPERITONEAL, Dose: 0, 3 MG/KG BW IN CORN OIL 1/2 WK FOR 24 WK (STUDY DURATION: 55 WK), Tumor Site: Type of Lesion: LIVER: HEPATOCELLULAR ADENOMA OR CARCINOMA): active; positive
- carcinogen call (Species: RAT, Strain/Sex: F344/MALE, Route: INTRAGASTRIC, Dose: 0, 30 MG/KG IN CORN OIL 1/2 WK FOR 71 WK (STUDY DURATION: 73 WK)): inactive; negative
- carcinogen call (Species: RAT, Strain/Sex: F344/MALE, Route: INTRAPERITONEAL, Dose: 0, 30 MG/KG IN CORN OIL 1/2 WK FOR 71 WK (STUDY DURATION: 73 WK)): inactive; negative

SMILES: c1cc2ccc3ccc4ccc5cccc6c(c1)c2c3c4c56
- carcinogen call (Species: RAT, Strain/Sex: OSBORNE-MENDEL/FEMALE, Route: LUNG IMPLANT, Dose: 0, 0.16, 0.83, 4.15 MG IN BEESWAX/TRIOCTANOIN (STUDY DURATION: LIFETIME), Dose: 0, 0.16, 0.83, 4.15 MG IN BEESWAX/TRIOCTANOIN (STUDY DURATION: LIFETIME)): inactive; negative

SMILES: CCS(=O)(=O)c1ccc(S(N)(=O)=O)c2ccccc12
- carcinogen call (Species: MOUSE, Strain/Sex: A X 1F/FEMALE, Route: ORAL, Dose: 0, 0.01% IN POWDERED OXOID DIET (STUDY DURATION: 333-701 D), Tumor Site: Type of Lesion: BLADDER: CARCINOMA, LUNG: ADENOMA): active; positive
- carcinogen call (Species: MOUSE, Strain/Sex: A X 1F/FEMALE, Route: ORAL, Dose: 0, 0.01% IN POWDERED OXOID DIET PRECEDED BY IRRADIATION OF 1000 RAD WITH UPPER BODY SHIELDED 48H PRIOR TO DOSING (STUDY, Tumor Site: Type of Lesion: BLADDER: CARCINOMA, LUNG: ADENOMA): active; positive

SMILES: O=C1CCC(=O)O1
- carcinogen call (Species: MOUSE, Strain/Sex: B6C3F1/FEMALE, Route: GAVAGE, Dose: 0, 75, 150 MG/KG IN CORN OIL 5 D/WK FOR 103 WK (STUDY DURATION: 104 WK), Dose: 0, 75, 150 MG/KG IN CORN OIL 5 D/WK FOR 103 WK (STUDY DURATION: 104 WK)): inactive; negative
- carcinogen call (Species: MOUSE, Strain/Sex: B6C3F1/MALE, Route: GAVAGE, Dose: 0, 38, 75 MG/KG IN CORN OIL 5 D/WK FOR 103 WK (STUDY DURATION: 104 WK), Dose: 0, 38, 75 MG/KG IN CORN OIL 5 D/WK FOR 103 WK (STUDY DURATION: 104 WK)): inactive; negative
- carcinogen call (Species: RAT, Strain/Sex: F344/FEMALE, Route: GAVAGE, Dose: 0, 50, 100 MG/KG IN CORN OIL 5 D/WK FOR 103 WK (STUDY DURATION: 104 WK), Dose: 0, 50, 100 MG/KG IN CORN OIL 5 D/WK FOR 103 WK (STUDY DURATION: 104 WK)): inactive; negative
- carcinogen call (Species: RAT, Strain/Sex: F344/MALE, Route: GAVAGE, Dose: 0, 50, 100 MG/KG IN CORN OIL 5 D/WK FOR 103 WK (STUDY DURATION: 104 WK), Dose: 0, 50, 100 MG/KG IN CORN OIL 5 D/WK FOR 103 WK (STUDY DURATION: 104 WK)): inactive; negative

SMILES: CS(=O)(=O)OCCCCOS(C)(=O)=O
- carcinogen call (Species: MOUSE, Route: INTRAVENOUS, Tumor Site: Type of Lesion: OVARIES, THYMUS GLAND): active; positive

SMILES: O=[N+]([O-])c1ccc(-c2cscn2)o1
- carcinogen call (Species: RAT, Strain/Sex: SPRAGUE-DAWLEY/FEMALE, Route: ORAL, Dose: 0, 1540 PPM IN DIET FOR 46 WK (TOTAL DOSE: 42 MMOL/RAT) (STUDY DURATION: 68 WK), Tumor Site: Type of Lesion: MAMMARY GLAND: FIBROADENOMA, FORESTOMACH: SQUAMOUS CELL CARCINOMA): active; positive
